Measured values published in ChEMBL document CHEMBL3862033 (J Med Chem, 2016).

Target: T1, 5-hydroxytryptamine receptor 1A (Homo sapiens) (UniProt P08908)
T1 sequence (whole entry): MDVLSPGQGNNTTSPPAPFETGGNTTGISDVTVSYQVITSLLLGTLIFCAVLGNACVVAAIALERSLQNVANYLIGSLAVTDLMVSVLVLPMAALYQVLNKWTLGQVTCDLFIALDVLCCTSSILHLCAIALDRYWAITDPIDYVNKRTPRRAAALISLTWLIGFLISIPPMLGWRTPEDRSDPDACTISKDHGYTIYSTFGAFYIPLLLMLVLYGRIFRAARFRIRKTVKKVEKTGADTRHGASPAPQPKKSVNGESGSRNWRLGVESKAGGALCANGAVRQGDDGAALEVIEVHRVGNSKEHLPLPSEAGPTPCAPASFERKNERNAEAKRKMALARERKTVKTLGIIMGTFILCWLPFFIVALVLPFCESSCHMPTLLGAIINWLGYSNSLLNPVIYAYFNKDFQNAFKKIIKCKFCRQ
Assay: Displacement of [3H]WAY100635 from human 5-HT1AR expressed in CHO cell membranes at 10 uM incubated for 90 mins under dark condition by microbeta scintillation counting method relative to control
Conditions: not given

Q: For `CNc1nc(Cl)nc2c1ncn2[C@H]1[C@H](O)[C@H](O)[C@]2(CO)C[C@H]12`, which inhibition is on record?
A: < 50%

Q: For `CC[C@H](Nc1nc(Cl)nc2c1ncn2[C@H]1[C@H](O)[C@H](O)[C@]2(CO)C[C@H]12)C1CC1`, which inhibition is on record?
A: < 50%

Target: 5-hydroxytryptamine receptor 1B (Homo sapiens) (UniProt P28222)
Assay: Displacement of [3H]5-CT from human 5-HT1BR expressed in HEK cell membranes at 10 uM incubated for 90 mins under dark condition by microbeta scintillation counting method relative to control
Conditions: HEK293

Chain of 5-hydroxytryptamine receptor 1B (Homo sapiens) (P28222 whole entry): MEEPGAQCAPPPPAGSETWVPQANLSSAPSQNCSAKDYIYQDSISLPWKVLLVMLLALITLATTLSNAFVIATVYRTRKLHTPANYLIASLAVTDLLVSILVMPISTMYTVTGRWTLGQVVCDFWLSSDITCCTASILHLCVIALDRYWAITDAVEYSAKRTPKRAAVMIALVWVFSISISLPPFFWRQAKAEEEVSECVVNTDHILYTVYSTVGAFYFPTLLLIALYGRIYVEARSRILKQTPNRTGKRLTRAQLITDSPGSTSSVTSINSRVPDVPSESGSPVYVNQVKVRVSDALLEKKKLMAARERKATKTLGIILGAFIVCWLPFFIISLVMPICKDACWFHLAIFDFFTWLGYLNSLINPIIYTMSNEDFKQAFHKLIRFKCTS

Q: With `CNc1nc(Cl)nc2c1ncn2[C@H]1[C@H](O)[C@H](O)[C@]2(CO)C[C@H]12` as the compound, how does the inhibition read?
A: < 50%

Q: Which inhibition does the source give for `CC[C@H](Nc1nc(Cl)nc2c1ncn2[C@H]1[C@H](O)[C@H](O)[C@]2(CO)C[C@H]12)C1CC1` here?
A: < 50%

Target: 5-hydroxytryptamine receptor 1D (Homo sapiens) (UniProt P28221)
Assay: Displacement of [3H]5-CT from human 5-HT1D receptor expressed in HEK-T cell membranes at 10 uM incubated for 90 mins under dark condition by microbeta scintillation counting method relative to control
Conditions: not given

Chain of 5-hydroxytryptamine receptor 1D (Homo sapiens) (P28221 whole entry): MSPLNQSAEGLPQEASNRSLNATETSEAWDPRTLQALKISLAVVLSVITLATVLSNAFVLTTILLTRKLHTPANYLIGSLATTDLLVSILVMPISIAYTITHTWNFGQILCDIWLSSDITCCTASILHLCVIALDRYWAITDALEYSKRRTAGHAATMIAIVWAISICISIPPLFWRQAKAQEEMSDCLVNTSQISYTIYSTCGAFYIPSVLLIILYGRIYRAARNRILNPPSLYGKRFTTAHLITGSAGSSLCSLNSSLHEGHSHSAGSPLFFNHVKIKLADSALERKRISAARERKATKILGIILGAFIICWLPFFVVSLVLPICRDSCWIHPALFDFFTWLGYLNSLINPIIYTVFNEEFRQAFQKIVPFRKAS

Q: With `CNc1nc(Cl)nc2c1ncn2[C@H]1[C@H](O)[C@H](O)[C@]2(CO)C[C@H]12` as the compound, how does the inhibition read?
A: < 50%

Q: With `CC[C@H](Nc1nc(Cl)nc2c1ncn2[C@H]1[C@H](O)[C@H](O)[C@]2(CO)C[C@H]12)C1CC1` as the compound, how does the inhibition read?
A: < 50%

Target: 5-hydroxytryptamine receptor 1E (Homo sapiens) (UniProt P28566)
Assay: Displacement of [3H]5-HT from human 5-HT1E receptor expressed in HEK cell membranes at 10 uM incubated for 90 mins under dark condition by microbeta scintillation counting method relative to control
Conditions: HEK293

Chain of 5-hydroxytryptamine receptor 1E (Homo sapiens) (P28566 whole entry): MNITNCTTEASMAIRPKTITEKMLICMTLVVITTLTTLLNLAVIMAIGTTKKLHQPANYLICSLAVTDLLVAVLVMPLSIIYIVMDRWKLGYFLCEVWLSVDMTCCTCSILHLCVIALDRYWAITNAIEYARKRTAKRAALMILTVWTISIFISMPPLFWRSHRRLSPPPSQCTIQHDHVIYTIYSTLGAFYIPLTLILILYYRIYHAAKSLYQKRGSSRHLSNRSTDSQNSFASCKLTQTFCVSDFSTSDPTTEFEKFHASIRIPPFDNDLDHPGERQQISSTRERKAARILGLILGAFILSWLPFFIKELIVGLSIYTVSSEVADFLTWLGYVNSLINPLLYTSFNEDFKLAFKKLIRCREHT

Q: For `CNc1nc(Cl)nc2c1ncn2[C@H]1[C@H](O)[C@H](O)[C@]2(CO)C[C@H]12`, which inhibition is on record?
A: < 50%

Q: For `CC[C@H](Nc1nc(Cl)nc2c1ncn2[C@H]1[C@H](O)[C@H](O)[C@]2(CO)C[C@H]12)C1CC1`, which inhibition is on record?
A: < 50%

Target: 5-hydroxytryptamine receptor 4 (Homo sapiens) (UniProt Q13639)
Assay: Displacement of [3H]GR113808 from human 5-HT4 receptor at 10 uM incubated for 90 mins under dark condition by microbeta scintillation counting method relative to control
Conditions: not given

Chain of 5-hydroxytryptamine receptor 4 (Homo sapiens) (Q13639 whole entry): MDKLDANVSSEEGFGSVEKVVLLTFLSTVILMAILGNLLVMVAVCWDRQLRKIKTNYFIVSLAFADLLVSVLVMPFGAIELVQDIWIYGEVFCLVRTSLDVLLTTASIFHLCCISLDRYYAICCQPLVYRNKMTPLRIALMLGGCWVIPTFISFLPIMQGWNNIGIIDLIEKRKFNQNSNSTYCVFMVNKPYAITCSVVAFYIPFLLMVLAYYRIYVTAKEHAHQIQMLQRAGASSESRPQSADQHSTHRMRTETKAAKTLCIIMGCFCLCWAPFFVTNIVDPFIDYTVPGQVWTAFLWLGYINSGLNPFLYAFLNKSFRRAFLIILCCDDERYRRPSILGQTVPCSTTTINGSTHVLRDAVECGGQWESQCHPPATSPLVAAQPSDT

Q: Which inhibition does the source give for `CNc1nc(Cl)nc2c1ncn2[C@H]1[C@H](O)[C@H](O)[C@]2(CO)C[C@H]12` here?
A: < 50%

Q: For `CC[C@H](Nc1nc(Cl)nc2c1ncn2[C@H]1[C@H](O)[C@H](O)[C@]2(CO)C[C@H]12)C1CC1`, which inhibition is on record?
A: < 50%

Target: 5-hydroxytryptamine receptor 6 (Homo sapiens) (UniProt P50406)
Assay: Displacement of [3H]LSD from human 5-HT6 receptor expressed in HEK cell membranes at 10 uM incubated for 90 mins under dark condition by microbeta scintillation counting method relative to control
Conditions: HEK293

Chain of 5-hydroxytryptamine receptor 6 (Homo sapiens) (P50406 whole entry): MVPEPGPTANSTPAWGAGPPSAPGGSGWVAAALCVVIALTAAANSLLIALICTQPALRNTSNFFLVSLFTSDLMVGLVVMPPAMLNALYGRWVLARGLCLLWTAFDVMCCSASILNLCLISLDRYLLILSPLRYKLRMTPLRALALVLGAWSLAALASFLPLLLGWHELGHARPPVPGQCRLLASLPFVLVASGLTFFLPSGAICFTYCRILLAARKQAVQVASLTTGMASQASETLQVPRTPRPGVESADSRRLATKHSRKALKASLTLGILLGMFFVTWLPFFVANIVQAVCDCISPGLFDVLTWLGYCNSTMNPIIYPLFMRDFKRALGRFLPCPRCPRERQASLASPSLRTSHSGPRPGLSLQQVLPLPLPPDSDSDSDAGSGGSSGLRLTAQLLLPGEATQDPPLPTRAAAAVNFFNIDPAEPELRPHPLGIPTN

Q: Which inhibition does the source give for `CNc1nc(Cl)nc2c1ncn2[C@H]1[C@H](O)[C@H](O)[C@]2(CO)C[C@H]12` here?
A: < 50%

Q: Which inhibition does the source give for `CC[C@H](Nc1nc(Cl)nc2c1ncn2[C@H]1[C@H](O)[C@H](O)[C@]2(CO)C[C@H]12)C1CC1` here?
A: < 50%

Target: 5-hydroxytryptamine receptor 7 (Homo sapiens) (UniProt P34969)
Assay: Displacement of [3H]LSD from human 5-HT7A receptor expressed in HEK cell membranes at 10 uM incubated for 90 mins under dark condition by microbeta scintillation counting method relative to control
Conditions: HEK293

Chain of 5-hydroxytryptamine receptor 7 (Homo sapiens) (P34969 whole entry): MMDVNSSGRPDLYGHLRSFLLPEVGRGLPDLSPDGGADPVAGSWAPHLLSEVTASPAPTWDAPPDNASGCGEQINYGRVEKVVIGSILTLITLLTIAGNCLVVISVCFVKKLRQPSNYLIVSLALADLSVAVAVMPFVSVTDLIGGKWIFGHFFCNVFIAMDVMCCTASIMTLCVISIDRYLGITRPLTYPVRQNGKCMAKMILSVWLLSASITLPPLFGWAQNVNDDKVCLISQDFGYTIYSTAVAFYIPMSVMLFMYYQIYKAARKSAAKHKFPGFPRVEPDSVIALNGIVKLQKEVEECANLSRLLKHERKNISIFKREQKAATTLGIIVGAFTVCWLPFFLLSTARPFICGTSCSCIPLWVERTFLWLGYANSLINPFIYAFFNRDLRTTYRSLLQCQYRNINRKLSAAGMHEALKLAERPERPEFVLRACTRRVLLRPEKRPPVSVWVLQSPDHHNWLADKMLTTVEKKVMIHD

Q: Which inhibition does the source give for `CNc1nc(Cl)nc2c1ncn2[C@H]1[C@H](O)[C@H](O)[C@]2(CO)C[C@H]12` here?
A: < 50%

Q: For `CC[C@H](Nc1nc(Cl)nc2c1ncn2[C@H]1[C@H](O)[C@H](O)[C@]2(CO)C[C@H]12)C1CC1`, which inhibition is on record?
A: < 50%

Target: T2, 5-hydroxytryptamine receptor 3A (Homo sapiens) (UniProt P46098)
T2 sequence (whole entry): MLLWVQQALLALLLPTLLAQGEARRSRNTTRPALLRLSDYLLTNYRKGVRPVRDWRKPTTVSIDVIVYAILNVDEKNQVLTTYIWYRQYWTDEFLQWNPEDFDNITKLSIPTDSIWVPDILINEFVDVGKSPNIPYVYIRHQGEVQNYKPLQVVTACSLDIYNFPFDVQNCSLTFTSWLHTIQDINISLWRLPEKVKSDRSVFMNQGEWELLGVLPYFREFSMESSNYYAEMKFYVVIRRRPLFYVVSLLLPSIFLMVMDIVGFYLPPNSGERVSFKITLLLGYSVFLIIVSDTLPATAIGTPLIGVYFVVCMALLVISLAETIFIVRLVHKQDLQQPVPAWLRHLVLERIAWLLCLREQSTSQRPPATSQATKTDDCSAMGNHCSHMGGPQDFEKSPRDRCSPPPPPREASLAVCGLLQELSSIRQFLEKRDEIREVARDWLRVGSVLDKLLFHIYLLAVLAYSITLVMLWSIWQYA
Assay: Displacement of [3H]GR65630 from human 5-HT3 receptor expressed in HEK-T cell membranes at 10 uM incubated for 90 mins under dark condition by microbeta scintillation counting method relative to control
Conditions: not given

Q: Which inhibition does the source give for `CNc1nc(Cl)nc2c1ncn2[C@H]1[C@H](O)[C@H](O)[C@]2(CO)C[C@H]12` here?
A: < 50%

Q: For `CC[C@H](Nc1nc(Cl)nc2c1ncn2[C@H]1[C@H](O)[C@H](O)[C@]2(CO)C[C@H]12)C1CC1`, which inhibition is on record?
A: < 50%

Target: 5-hydroxytryptamine receptor 5A (Homo sapiens) (UniProt P47898)
Assay: Displacement of [3H]LSD from human 5-HT5A receptor expressed in Flp-In-CHO cell membranes incubated for 90 mins under dark condition by microbeta scintillation counting method relative to control
Set-up: concentration or dose not given beside the values
Conditions: not given

Chain of 5-hydroxytryptamine receptor 5A (Homo sapiens) (P47898 whole entry): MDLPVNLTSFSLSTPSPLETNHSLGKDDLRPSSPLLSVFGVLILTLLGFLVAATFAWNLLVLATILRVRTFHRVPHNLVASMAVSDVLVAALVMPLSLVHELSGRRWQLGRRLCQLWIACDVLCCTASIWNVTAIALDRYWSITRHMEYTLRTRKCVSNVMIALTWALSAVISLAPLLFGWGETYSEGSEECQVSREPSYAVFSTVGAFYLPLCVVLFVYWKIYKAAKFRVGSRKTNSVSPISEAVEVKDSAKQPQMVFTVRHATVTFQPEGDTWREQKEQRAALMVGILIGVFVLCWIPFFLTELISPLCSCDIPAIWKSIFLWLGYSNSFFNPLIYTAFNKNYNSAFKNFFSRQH

Q: Which inhibition does the source give for `CNc1nc(Cl)nc2c1ncn2[C@H]1[C@H](O)[C@H](O)[C@]2(CO)C[C@H]12` here?
A: < 50%

Q: Which inhibition does the source give for `CC[C@H](Nc1nc(Cl)nc2c1ncn2[C@H]1[C@H](O)[C@H](O)[C@]2(CO)C[C@H]12)C1CC1` here?
A: < 50%

Target: T3, 5-hydroxytryptamine receptor 2A (Homo sapiens, UniProt P28223)
Assay: Displacement of [3H]ketanserin from human 5-HT2A receptor expressed in HEK-T cell membranes at 10 uM incubated for 90 mins under dark condition by microbeta scintillation counting method relative to control
Conditions: not given

T3 sequence (P28223 whole entry): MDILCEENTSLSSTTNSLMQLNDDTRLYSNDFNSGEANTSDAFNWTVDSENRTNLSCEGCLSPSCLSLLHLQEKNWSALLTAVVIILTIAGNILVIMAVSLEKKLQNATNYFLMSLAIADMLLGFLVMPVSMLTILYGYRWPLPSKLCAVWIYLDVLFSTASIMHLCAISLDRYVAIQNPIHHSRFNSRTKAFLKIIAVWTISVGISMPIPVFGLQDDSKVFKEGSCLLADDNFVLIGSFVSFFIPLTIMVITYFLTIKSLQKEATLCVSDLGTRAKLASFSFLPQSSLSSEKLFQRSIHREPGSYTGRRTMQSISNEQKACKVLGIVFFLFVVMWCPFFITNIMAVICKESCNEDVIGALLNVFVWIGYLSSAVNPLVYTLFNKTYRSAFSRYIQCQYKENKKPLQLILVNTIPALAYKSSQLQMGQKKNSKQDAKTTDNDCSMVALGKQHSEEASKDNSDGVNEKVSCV

Q: Which inhibition does the source give for `CNc1nc(Cl)nc2c1ncn2[C@H]1[C@H](O)[C@H](O)[C@]2(CO)C[C@H]12` here?
A: < 10%

Q: With `CC[C@H](Nc1nc(Cl)nc2c1ncn2[C@H]1[C@H](O)[C@H](O)[C@]2(CO)C[C@H]12)C1CC1` as the compound, how does the inhibition read?
A: < 10%

Target: T4, 5-hydroxytryptamine receptor 2C (Homo sapiens, UniProt P28335)
T4 sequence (P28335 whole entry): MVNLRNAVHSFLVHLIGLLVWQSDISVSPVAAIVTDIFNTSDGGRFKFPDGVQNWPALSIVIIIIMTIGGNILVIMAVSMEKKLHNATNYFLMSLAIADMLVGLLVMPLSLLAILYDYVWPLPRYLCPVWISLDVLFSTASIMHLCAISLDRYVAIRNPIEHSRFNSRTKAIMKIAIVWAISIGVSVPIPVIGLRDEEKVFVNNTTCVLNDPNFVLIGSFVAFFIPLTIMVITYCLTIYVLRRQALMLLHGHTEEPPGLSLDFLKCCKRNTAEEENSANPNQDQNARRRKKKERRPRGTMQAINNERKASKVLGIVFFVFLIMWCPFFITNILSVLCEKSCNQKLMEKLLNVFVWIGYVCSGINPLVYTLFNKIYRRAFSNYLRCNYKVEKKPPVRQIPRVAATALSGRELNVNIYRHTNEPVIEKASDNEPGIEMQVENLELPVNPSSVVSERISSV
Assay: Displacement of [3H]mesulergine from human 5-HT2CR expressed in Flp-In HEK cell membranes incubated for 90 mins under dark condition by microbeta scintillation counting method
Set-up: species or system HEK293
Conditions: not given

Q: Which Ki does the source give for `CC[C@H](Nc1nc(Cl)nc2c1ncn2[C@H]1[C@H](O)[C@H](O)[C@]2(CO)C[C@H]12)C1CC1` here?
A: 251 nM

Target: T5, 5-hydroxytryptamine receptor 2C (Homo sapiens) (UniProt P28335)
T5 sequence (whole entry): T4 sequence (P28335 whole entry)
Assay: Displacement of [3H]mesulergine from human 5-HT2CR expressed in Flp-In HEK cell membranes at 10 uM incubated for 90 mins under dark condition by microbeta scintillation counting method relative to control
Conditions: HEK293

Q: With `CNc1nc(Cl)nc2c1ncn2[C@H]1[C@H](O)[C@H](O)[C@]2(CO)C[C@H]12` as the compound, how does the inhibition read?
A: > 50%

Q: With `CC[C@H](Nc1nc(Cl)nc2c1ncn2[C@H]1[C@H](O)[C@H](O)[C@]2(CO)C[C@H]12)C1CC1` as the compound, how does the inhibition read?
A: > 50%

Target: T6, Adenosine receptor A1 (Homo sapiens, UniProt P30542)
T6 sequence (P30542 whole entry): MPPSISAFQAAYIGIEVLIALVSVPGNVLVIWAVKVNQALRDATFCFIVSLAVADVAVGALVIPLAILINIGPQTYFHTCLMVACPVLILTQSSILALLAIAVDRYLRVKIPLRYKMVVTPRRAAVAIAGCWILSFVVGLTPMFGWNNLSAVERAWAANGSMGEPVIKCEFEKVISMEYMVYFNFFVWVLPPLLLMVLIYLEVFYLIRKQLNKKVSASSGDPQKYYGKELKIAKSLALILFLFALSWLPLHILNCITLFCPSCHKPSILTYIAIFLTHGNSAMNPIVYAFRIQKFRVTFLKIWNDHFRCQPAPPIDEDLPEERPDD
Assay: Displacement of [3H]N6-phenylisopropyladenosine from recombinant human A1AR expressed in CHO cell membranes after 60 mins by liquid scintillation counting method
Conditions: not given

Q: Which Ki does the source give for `CC[C@H](Nc1nc(Cl)nc2c1ncn2[C@H]1[C@H](O)[C@H](O)[C@]2(CO)C[C@H]12)C1CC1` here?
A: 117 nM

Target: Adenosine receptor A2a (Homo sapiens, UniProt P29274)
Assay: Displacement of [3 H]2-[p-(2-carboxyethyl)phenyl-ethylamino]-5'-N-ethylcarboxamidoadenosine from recombinant human adenosine receptor A2A expressed in HEK293 cell membranes after 60 mins by liquid scintillation counting method
Conditions: not given

Chain of Adenosine receptor A2a (P29274 whole entry): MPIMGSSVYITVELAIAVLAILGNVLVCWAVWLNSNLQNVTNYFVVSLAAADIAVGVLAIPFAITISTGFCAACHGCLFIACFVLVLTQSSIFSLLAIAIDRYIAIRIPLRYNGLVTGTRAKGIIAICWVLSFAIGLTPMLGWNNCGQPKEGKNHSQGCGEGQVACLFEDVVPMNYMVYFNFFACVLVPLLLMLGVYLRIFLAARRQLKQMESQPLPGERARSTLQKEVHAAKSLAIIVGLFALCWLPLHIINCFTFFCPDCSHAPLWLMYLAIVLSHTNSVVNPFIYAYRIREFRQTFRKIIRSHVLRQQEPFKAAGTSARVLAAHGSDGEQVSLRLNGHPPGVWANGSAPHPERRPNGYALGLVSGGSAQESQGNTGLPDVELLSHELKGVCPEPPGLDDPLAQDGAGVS

Q: Which Ki does the source give for `CC[C@H](Nc1nc(Cl)nc2c1ncn2[C@H]1[C@H](O)[C@H](O)[C@]2(CO)C[C@H]12)C1CC1` here?
A: 2950 nM

System: not listed separately
Assay: Displacement of [3H]DTG from sigma2 receptor in rat PC12 cells after 90 mins by microbeta scintillation counting method
Assay type: cell-based
Conditions: pc-12

Q: Which Ki does the source give for `CNc1nc(Cl)nc2c1ncn2[C@H]1[C@H](O)[C@H](O)[C@]2(CO)C[C@H]12` here?
A: 2220 nM

Target: T3, 5-hydroxytryptamine receptor 2A
Assay: Displacement of [3H]ketanserin from human 5-HT2A receptor expressed in HEK-T cell membranes incubated for 90 mins under dark condition by microbeta scintillation counting method
Conditions: not given

Q: With `CNc1nc(Cl)nc2c1ncn2[C@H]1[C@H](O)[C@H](O)[C@]2(CO)C[C@H]12` as the compound, how does the Ki read?
A: > 10 µM

Q: For `CC[C@H](Nc1nc(Cl)nc2c1ncn2[C@H]1[C@H](O)[C@H](O)[C@]2(CO)C[C@H]12)C1CC1`, which Ki is on record?
A: > 10 µM
